Here are results for five substances from patent US20120022142A1, “RNA Interference Mediated Inhibition of Signal Transducer and Activator of Transcription 1 (STAT1) Gene Expression Using Short Interfering Nucleic Acid (siNA)” (Merck Sharp & Dohme Corp., priority 2009, published 2012).

[invAb] = inverted abasic unit; m = 2'-O-methyl; r = 2'-OH (RNA); f = 2'-fluoro

In one data set the test system is STAT1 human mRNA. The data set can be described thus: Initial screen of siNAs: STAT1 mRNA knock-down in A549 cells (96-well transfection, Taqman RT-PCR). It is filed as cell-based. Conditions: 10 nM siNA, 24 hrs, normalized against GAPDH, average of 2 experiments. The protocol:
A549 (human; ATCC cat# CCL-185): Cells were cultured at 37° C. in the presence of 5% CO2 and grown in Ham's F12K medium with 2 mM L-glutamine adjusted to contain 1.5 g/L sodium bicarbonate and supplemented with fetal bovine serum at a final concentration of 10% and 100 μg/mL of streptomycin and 100 U/mL penicillin.
Cells were plated in all wells of a tissue-culture treated, 96-well plate at a final count of 5000 cells/well in 100 μL of the appropriate culture media. The cells were cultured for 24 hours after plating at 37° C. in the presence of 5% CO2.
After 24 hours, complexes containing siNA and RNAiMax were created as follows: A solution of RNAiMax diluted 33-fold in OPTI-MEM was prepared. In parallel, solutions of the siNAs for testing were prepared to a final concentration of 120 nM in OPTI-MEM. After incubation of RNAiMax/OPTI-MEM solution at room temperature for 5 min, an equal volume of the siNA solution and the RNAiMax solution were added together for each of the siNAs.
This solution was incubated at room temperature for 20 minutes. After incubation, 20 uL of the solution was added to each of the relevant wells. The final concentration of siNA in each well was 10 nM and the final volume of RNAiMax in each well was 0.3 ul.
The time of incubation with the RNAiMax-siNA complexes was 24 hours and there was no change in media between transfection and harvesting, unless otherwise indicated.
RNA was extracted from a 96-well plate using the TaqMan® Gene Expression Cells-to-CT™ Kit (Cat# 4399002) with a modified protocol. Briefly, a 60 uL (1 plate) or 110 uL (2 plates) of the Lysis Solution with DNase I was dispensed into each well of the Lysis Buffer Plate (twin.tec full skirt plate). The lysis buffer and stop plates were stored at 4° C. until the cells were washed.
The culture medium was aspirated and discarded from the wells of the culture plate. 50 uL of chilled DPBS was added to each well, then aspirated and discarded. The lysis was performed automatically using a BioMek FX instrument and method. After the Biomek method was completed, the lysis plate was incubated for 2 min at room temperature. The lysis plate can be stored for 2 hours at 4° C., or at −20° C. or −80° C. for two months.
Each well of the reverse transcription plate required 10 uL of 2× reverse transcriptase Buffer, 1 uL of 20× reverse transcription enzyme and 2 uL of nuclease-free water. The reverse transcription master mix was prepared by mixing 2× reverse transcription buffer, 20× reverse transcription enzyme mix, and nuclease-free water. 13 uL of the reverse transcription master mix was dispensed into each well of the reverse transcription plate (semi-skirted). A separate reverse transcription plate was prepared for each cell plate. The plate was loaded onto a Biomek NX or Biomek FX Dual-96 and the Biomek method was run. The program is programmed to automatically added 7 uL of lysate from the cell lysis procedure described above into each well of the reverse transcription plate. The plate is sealed and spun on a centrifuge (1000 rpm for 30 seconds) to settle the contents to the bottom of the reverse transcription plate. The plate is placed in a thermocycler at 37° C. for 60 min, 95° C. for 5 min, and 4° C. until the plate is removed from the thermocycler. Upon removal, if not used immediately, the plate was frozen at −20° C.
(§1) A series of probes and primers were used to detect the various mRNA transcripts of the genes of β-Actin (human cell line only), and of STAT1 and GAPDH in mouse and human cell lines. All Taqman probes and primers for the experiments here-in described were supplied as pre-validated sets by Applied Biosystems, Inc. (see Table 2).
(§2) The assays were performed on an ABI 7900 instrument, according to the manufacturer's instructions.
Within each experiment, the baseline was set in the exponential phase of the amplification curve, and based on the intersection point of the baselines with the amplification curve, a Ct value was assigned by the instrument. […]
Background: Quantitative PCR measures a nucleic acid by following its amplification.

The subject of data set [1] is STAT1 mRNA. Briefly: Efficacy (% KD) and potency (IC50) of STAT1 mRNA knockdown of siNA leads in NIH3T3 cells. It is filed as cell-based, mouse. Conditions: mean ± S.D.; for IC50: STAT1 mRNA knockdown, read-out: Mouse (NIH3T3) IC50; for Mouse (NIH3T3) avg % KD: STAT1 mRNA, 30 nM siNA, at least three experiments. As to the method:
NIH 3T3 (mouse; ATCC cat# CRL-1658): Cells were cultured at 37° C. in the presence of 5% CO2 and grown in Dulbecco's modified Eagle's medium (DMEM) with 4 mM L-glutamine adjusted to contain 1.5 g/L sodium bicarbonate and 4.5 g/L glucose and supplemented with fetal bovine serum at a final concentration of 10%, 100 μg/mL of streptomycin, and 100 U/mL penicillin.
as §1, §2
The expression level of the gene of interest and % knock-down was calculated using Comparative Ct method: […]
All calculations of IC50s were performed using SigmaPlot 10.0 software. The data were analyzed using the sigmoidal dose-response (variable slope) equation for simple ligand binding. In all of the calculations of the % knock-down, the calculation was made relative to the normalized level of expression of the gene of interest in the samples treated with the non-targeting control (Ctrl siNA) unless otherwise indicated.
Certain siNAs were further analyzed for efficacy in human A549 cells and mouse NIH3T3 cells. Percent KD/reduction is represented as mean±S.D. IC50 is represented as mean±S.D. The date is summarized from at least three separate experiments and within each experiment, the data point is calculated from an n=2. The final concentration of siNA used was 30 nM.

For data set [2], the system named is STAT1 mRNA. The data set can be described thus: STAT1 mRNA level at 24, 48 and 72 hours post-transfection in A549 cells. Type of data set: cell-based, human. Conditions: STAT1 mRNA remaining vs control, A549, 30 nM; for mRNA 24 hr: 24 hr post-transfection; for mRNA 48 hr: 48 hr post-transfection; for mRNA 72 hr: 72 hr post-transfection. As to the method:
A549 cells were plated in 6-well plates at final counts of 70,000 cells/well in 2 ml of complete growth media (Ham's F12, Cellgro Cat# 10-080-CV+10% FBS). Transfection was performed using 2.5 uL of RNAiMax (Invitrogen Cat# 13778-150) per well. Final concentration of siNAs was 30, 3, 0.3, 0.03, 0.003, and 0.0003 nM done in duplicate. The siNAs were incubated for 24-72 hours. The duplicate samples were pooled to prepare protein lysates and RNA using the “PARIS” Protein and RNA Isolation System from Ambion, Cat# 1921. The total protein in the lysates was measured using a Bradford Dye Reagent (Bio-Rad, Cat# 500-0205).SDS-PAGE/Western Blotting was performed on the on the protein samples and RT-PCR on the RNA samples.
as §1
An assessment of the level of mRNA at each timepoint was also made and protein samples from the treated cells were used in Western blots with an α-STAT1 antibody. (Clontech, Cat# 610185) and anti-Tubulin Ab (Sigma # T6199) in human A549 cells. Cells were transfected 24, 48 or 72 hours before harvesting total protein and the final concentration of siNAs was 30 nM. Lanes were loaded with 10 ug of total protein. Quantification was done of both the STAT1α and the STAT1β proteins together. All the siNAs tested reduced STAT1 protein at each of the tested timepoints, with the highest degree of protein reduction being observed at 72 hours post-transfection.

As usually defined, the IC50 is the concentration that gives 50% inhibition.

On to “25351-DC: STAT1 siNA duplex, human target site 2249; modified strands SEQ ID NO: 39 and 40 (chain 1 CCUACACGAAGAAAGAACUTT; chain 2 AGUUCUUUCUUCGUGUAGGUU; chain 1: DNA at AGT, 2'-fluoro at CU, [invAb] at 5' end, 3' end, backbone not given here; chain 2: sugars from the 5' end rrrfffffffffmfmfmmmmm, backbone not given here)”, for which the “% KD Human” value with STAT1 human mRNA is reported as 90%. Moreover, in the data set with STAT1 mRNA [1], the half-maximal inhibitory concentration (IC50) was found to be 0.248 ± 0.086 nM and the “Mouse (NIH3T3) avg % KD” value was determined as 85.1 ± 3.5%. Moreover, in the data set with STAT1 mRNA [2], the “mRNA 24 hr” value came to 3%, the “mRNA 48 hr” value was 2% and the “mRNA 72 hr” value stood at 2%.

With “25367-DC: STAT1 siNA duplex, human target site 966; modified strands SEQ ID NO: 71 and 72 (chain 1 GCUUGACAAUAAGAGAAAGTT; chain 2 CUUUCUCUUAUUGUCAAGCUU; chain 1: DNA at AGT, 2'-fluoro at CU, [invAb] at 5' end, 3' end, backbone not given here; chain 2: sugars from the 5' end rrrffffffmffmffmmmfmm, backbone not given here)”, the “% KD Human” value with STAT1 human mRNA is on record as 91%. In the data set on STAT1 mRNA [1], the half-maximal inhibitory concentration (IC50) turned out to be 0.16 ± 0.034 nM and the “Mouse (NIH3T3) avg % KD” value was determined as 84.6 ± 2.6%. Moreover, in the data set with STAT1 mRNA [2], the “mRNA 24 hr” value turned out to be 3%, the “mRNA 48 hr” value stood at 2% and the “mRNA 72 hr” value was 2%.

On to “25368-DC: STAT1 siNA duplex, human target site 782; modified strands SEQ ID NO: 73 and 74 (chain 1 GUAAAGUCAGAAAUGUGAATT; chain 2 UUCACAUUUCUGACUUUACUU; chain 1: DNA at AGT, 2'-fluoro at CU, [invAb] at 5' end, 3' end, backbone not given here; chain 2: sugars from the 5' end rrrmfmfffffmmffffmfmm, backbone not given here)”, for which, in the data set with STAT1 human mRNA, the “% KD Human” value is on record as 91%. Besides, in the data set on STAT1 mRNA [1], the 50% inhibitory concentration (IC50) turned out to be 0.072 ± 0.023 nM and the “Mouse (NIH3T3) avg % KD” value is 89.9 ± 6.0%. Also, in the data set with STAT1 mRNA [2], the “mRNA 24 hr” value is listed as 3%, the “mRNA 48 hr” value amounted to 3% and the “mRNA 72 hr” value is on record as 3%.

“25369-DC: STAT1 siNA duplex, human target site 602; modified strands SEQ ID NO: 75 and 76 (chain 1 GGAAAAGCAAGCGUAAUCUTT; chain 2 AGAUUACGCUUGCUUUUCCUU; chain 1: DNA at AGT, 2'-fluoro at CU, [invAb] at 5' end, 3' end, backbone not given here; chain 2: sugars from the 5' end rrrffmfmfffmfffffffmm, backbone not given here)”: the “% KD Human” value in the data set on STAT1 human mRNA was determined as 92%. Besides, in the data set with STAT1 mRNA [1], the IC50 worked out at 0.58 ± 0.109 nM and the “Mouse (NIH3T3) avg % KD” value is 60.8 ± 3.5%. Besides, in the data set on STAT1 mRNA [2], the “mRNA 24 hr” value worked out at 8%, the “mRNA 48 hr” value amounted to 7% and the “mRNA 72 hr” value turned out to be 14%.

Turning to “25372-DC: STAT1 siNA duplex, human target site 968; modified strands SEQ ID NO: 81 and 82 (chain 1 UUGACAAUAAGAGAAAGGATT; chain 2 UCCUUUCUCUUAUUGUCAAUU; chain 1: DNA at AGT, 2'-fluoro at CU, [invAb] at 5' end, 3' end, backbone not given here; chain 2: sugars from the 5' end rrrffffffffmffmffmmmm, backbone not given here)”, the “% KD Human” value in the data set on STAT1 human mRNA came out at 92%. In the data set with STAT1 mRNA [1], the IC50 worked out at 0.182 ± 0.051 nM and the “Mouse (NIH3T3) avg % KD” value is 87.3 ± 7.2%. Also, in the data set on STAT1 mRNA [2], the “mRNA 24 hr” value was 4%, the “mRNA 48 hr” value is recorded as 3% and the “mRNA 72 hr” value was found to be 3%.
